In US6150385A, “1,3,4-thiadiazoles useful for the treatment of CMV infections” (Pharmacia & Upjohn Company, priority 1999, dated 2000):

Molecular target: T1, HCMV polymerase (Human cytomegalovirus, UniProt P08546)
T1 construct: made in house; host or cells: SF-9 insect cells infected with recombinant baculovirus
Assay: HCMV polymerase assay (scintillation proximity assay)
Type: biochemical
Conditions: percentage of inhibition at 25 μM concentration in CMV polymerase assay
Description: The compounds of the present invention are tested in an polymerase assay to show activity described below, which is indicative of a compound's activity and thus of its use as an anti-viral agent.
The HCMV polymerase assay is performed using a scintillation proximity assay (SPA) as described in several references, such as N. D. Cook, et al., Pharmaceutical Manufacturing International, pages 49-53 (1992); K. Takeuchi, Laboratory Practice, September issue (1992); U.S. Pat. No. 4,568,649 (1986); which are incorporated by reference herein. Reactions are performed in 96-well plates. The assay is conducted in 100 μl volume with 5.4 mM HEPES (pH 7.5), 11.7 mM KCl, 4.5 mM MgCl2, 0.36 mg/ml BSA, and 90 nM ^3 H-dTTP. Assays are run with and without CHAPS, (3-[(3-Cholamidopropyl)-dimethylammonio]-1-propanesulfonate) at a final concentration of 2 mM. HCMV is diluted in enzyme dilution buffer containing 50% glycerol, 250 mM NaCl, 10 mM HEPES (pH 7.5), 100 μg/ml BSA, and 0.01% sodium azide. The HCMV polymerase, which is expressed in recombinant baculovirus-infected SF-9 cells and purified according to literature procedures, is added at 10% (or 10 μl) of the final reaction volume, i.e., 100 μl. Compounds are diluted in 50% DMSO and 10 μl are added to each well. Control wells contain an equivalent concentration of DMSO. Unless noted otherwise, reactions are initiated via the addition of 6 nM biotinylated poly(dA)-oligo(dT) template/primer to reaction mixtures containing the enzyme, substrate, and compounds of interest. Plates are incubated in a 25° C. or 37° C. H2 O bath and terminated via the addition of 40 μl/reaction of 0.5 M EDTA (pH 8) per well. Reactions are terminated within the time-frame during which substrate incorporation is linear and varied depending upon the enzyme and conditions used, i.e., 30 min. for HCMV polymerase. Ten μl of streptavidin-SPA beads (20 mg/ml in PBS/10% glycerol) are added following termination of the reaction. Plates are incubated 10 min. at 37° C., then equilibrated to room temperature, and counted on a Packard Topcount.
In TABLE 1, "MS" refers to mass spectral data, "% inhib" refers to percentage of inhibition at 25 μM concentration in CMV polymerase assay.

T1 sequence (P08546 whole entry): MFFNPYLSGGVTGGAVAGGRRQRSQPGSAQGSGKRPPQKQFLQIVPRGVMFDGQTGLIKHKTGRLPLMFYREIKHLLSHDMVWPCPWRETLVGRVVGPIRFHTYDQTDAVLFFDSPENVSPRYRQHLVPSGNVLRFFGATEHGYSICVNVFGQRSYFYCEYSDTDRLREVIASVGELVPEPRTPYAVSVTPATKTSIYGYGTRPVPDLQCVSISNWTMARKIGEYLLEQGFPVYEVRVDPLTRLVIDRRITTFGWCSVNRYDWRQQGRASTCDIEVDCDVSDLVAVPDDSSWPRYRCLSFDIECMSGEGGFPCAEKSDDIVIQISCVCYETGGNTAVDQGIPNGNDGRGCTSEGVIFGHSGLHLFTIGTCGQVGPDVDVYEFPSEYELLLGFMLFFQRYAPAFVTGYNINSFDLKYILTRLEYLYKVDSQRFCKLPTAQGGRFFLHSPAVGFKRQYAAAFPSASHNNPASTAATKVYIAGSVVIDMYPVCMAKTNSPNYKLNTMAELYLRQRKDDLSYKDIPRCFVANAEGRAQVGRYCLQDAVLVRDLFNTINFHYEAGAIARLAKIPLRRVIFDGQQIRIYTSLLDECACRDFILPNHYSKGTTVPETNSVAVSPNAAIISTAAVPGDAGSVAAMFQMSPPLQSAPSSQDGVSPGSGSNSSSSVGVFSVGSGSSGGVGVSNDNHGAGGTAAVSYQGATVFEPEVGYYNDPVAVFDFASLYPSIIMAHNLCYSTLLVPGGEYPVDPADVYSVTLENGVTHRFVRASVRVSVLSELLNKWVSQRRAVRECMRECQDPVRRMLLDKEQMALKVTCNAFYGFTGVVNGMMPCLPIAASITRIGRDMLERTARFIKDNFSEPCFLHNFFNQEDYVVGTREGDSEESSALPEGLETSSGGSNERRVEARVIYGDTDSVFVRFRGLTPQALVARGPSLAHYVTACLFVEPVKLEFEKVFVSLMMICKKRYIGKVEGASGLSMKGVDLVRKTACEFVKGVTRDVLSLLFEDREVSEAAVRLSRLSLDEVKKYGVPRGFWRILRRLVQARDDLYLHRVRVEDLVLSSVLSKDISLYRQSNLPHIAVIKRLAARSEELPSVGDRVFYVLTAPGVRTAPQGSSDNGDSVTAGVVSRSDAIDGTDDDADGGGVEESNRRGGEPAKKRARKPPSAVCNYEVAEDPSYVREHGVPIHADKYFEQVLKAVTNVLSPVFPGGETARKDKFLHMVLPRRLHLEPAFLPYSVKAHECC

Compound | inhibition at 25 µM [%] | % Inhib [%]
CCCCCCCC/C=C/CCCCCCCC(=O)Nc1nnc(NCc2cccs2)s1 [compound 42, (E)-N-{5-[(2-thienylmethyl)amino]-1,3,4-thiadiazol-2-yl}-9-octadecenamide] | 84.6 | –
CCOc1ccc2ccccc2c1C(=O)Nc1nnc(NCc2ccc3c(c2)OCO3)s1 [compound 43, N-{5-[(1,3-benzodioxol-5-ylmethyl)amino]-1,3,4-thiadiazol-2-yl}-2-ethoxy-1-naphthamide] | 83.9 | –
O=C(Nc1nnc(NCc2cccc3ccccc23)s1)c1ccc([N+](=O)[O-])o1 [compound 44, N-{5-[(1-naphthylmethyl)amino]-1,3,4-thiadiazol-2-yl}-5-nitro-2-furamide] | 83.3 | –
CCOc1ccc2ccccc2c1C(=O)Nc1nnc(NC2CCN(Cc3ccccc3)CC2)s1 [compound 45, N-{5-[(1-benzyl-4-piperidinyl)amino]-1,3,4-thiadiazol-2-yl}-2-ethoxy-1-naphthamide] | 83.1 | –
N#Cc1ccc(C(=O)Nc2nnc(NCCC(c3ccccc3)c3ccccc3)s2)cc1 [compound 46, 4-cyano-N-{5-[(3,3-diphenylpropyl)amino]-1,3,4-thiadiazol-2-yl}benzamide] | 82.3 | –
O=C(Nc1nnc(NCCc2c[nH]c3ccccc23)s1)c1ccc([N+](=O)[O-])o1 [compound 47, N-(5-{[2-(1H-indol-3-yl)ethyl]amino}-1,3,4-thiadiazol-2-yl)-5-nitro-2-furamide] | 81.6 | –
CCCCCCCC/C=C/CCCCCCCC(=O)Nc1nnc(NCc2ccc(F)cc2)s1 [compound 48, (E)-N-{5-[(4-fluorobenzyl)amino]-1,3,4-thiadiazol-2-yl}-9-octadecenamide] | 81.5 | –
CCCCCCCCCCCNc1nnc(NC(=O)c2ccc(S(=O)(=O)F)cc2)s1 [compound 49, 4-({[5-(undecylamino)-1,3,4-thiadiazol-2-yl]amino}carbonyl)benzenesulfonyl fluoride] | – | 80.3
NS(=O)(=O)c1ccc(CCNc2nnc(NC(=O)/C=C/c3ccccc3)s2)cc1 [compound 50, (E)-N-(5-{[4-(aminosulfonyl)phenethyl]amino}-1,3,4-thiadiazol-2-yl)-3-phenyl-2-propenamide] | 79.8 | –
CCCCCCCC/C=C/CCCCCCCC(=O)Nc1nnc(NCCCCCCCCCCC)s1 [compound 51, (E)-N-[5-(undecylamino)-1,3,4-thiadiazol-2-yl]-9-octadecenamide] | 79.5 | –
O=C(Nc1nnc(NCCCCc2ccccc2)s1)c1cc2ccccc2s1 [compound 52, N-{5-[(4-phenylbutyl)amino]-1,3,4-thiadiazol-2-yl}-1-benzothiophen-2-carboxamide] | 78.7 | –
CCCCCCCC/C=C/CCCCCCCC(=O)Nc1nnc(NCc2ccc3c(c2)OCO3)s1 [compound 53, (E)-N-{5-[(1,3-benzodioxol-5-ylmethyl)amino]-1,3,4-thiadiazol-2-yl}-9-octadecenamide] | 77.9 | –
O=C(Nc1nnc(NCc2ccncc2)s1)c1ccc2c(c1)C(=O)OC2=O [compound 54, 1,3-dioxo-N-{5-[(4-pyridinylmethyl)amino]-1,3,4-thiadiazol-2-yl}-1,3-dihydro-2-benzofuran-5-carboxamide] | 77.7 | –
CCOc1ccc2ccccc2c1C(=O)Nc1nnc(NCC(c2ccccc2)c2ccccc2)s1 [compound 55, N-{5-[(2,2-diphenylethyl)amino]-1,3,4-thiadiazol-2-yl}-2-ethoxy-1-naphthamide] | 77.6 | –
O=C(Nc1nnc(NCC(c2ccccc2)c2ccccc2)s1)c1c(Cl)cccc1Cl [compound 56, 2,6-dichloro-N-{5-[(2,2-diphenylethyl)amino]-1,3,4-thiadiazol-2-yl}benzamide] | 77.4 | –
NS(=O)(=O)c1ccc(CNc2nnc(NC(=O)c3ccc(I)cc3)s2)cc1 [compound 57, N-(5-{[4-(aminosulfonyl)benzyl]amino}-1,3,4-thiadiazol-2-yl)-4-iodobenzamide] | 76.3 | –
CCCCCCCC/C=C/CCCCCCCC(=O)Nc1nnc(NCCSc2ccccc2)s1 [compound 58, (E)-N-(5-{[2-(phenylsulfanyl)ethyl]amino}-1,3,4-thiadiazol-2-yl)-9-octadecenamide] | 75.8 | –
O=C(Nc1nnc(NCCCCc2ccccc2)s1)c1ccc(I)cc1 [compound 59, 4-iodo-N-{5-[(4-phenylbutyl)amino]-1,3,4-thiadiazol-2-yl}benzamide] | 74.6 | –
CCCCCCCCCCCNc1nnc(NC(=O)c2ccc([N+](=O)[O-])o2)s1 [compound 60, 5-nitro-N-[5-(undecylamino)-1,3,4-thiadiazol-2-yl]-2-furamide] | 74.5 | –
CCOc1ccc2ccccc2c1C(=O)Nc1nnc(NCCC(c2ccccc2)c2ccccc2)s1 [compound 61, N-{5-[(3,3-diphenylpropyl)amino]-1,3,4-thiadiazol-2-yl}-2-ethoxy-1-naphthamide] | 74.2 | –
O=C(Nc1nnc(NCCCNC2CCCCC2)s1)c1cc2ccccc2s1 [compound 62, N-(5-{[3-(cyclohexylamino)propyl]amino}-1,3,4-thiadiazol-2-yl)-1-benzothiophene-2-carboxamide] | 74 | –
O=C(Nc1nnc(NCCC(c2ccccc2)c2ccccc2)s1)c1c(Cl)cccc1Cl [compound 63, 2,6-dichloro-N-{5-[(3,3-diphenylpropyl)amino]1,3,4-thiadiazol-2-yl}benzamide] | 73.8 | –

Further lines, with some results ahead:

inhibition at 25 µM [%] | Compound | % Inhib [%]
73.6 | CCCCCCCC/C=C/CCCCCCCC(=O)Nc1nnc(NCCC(c2ccccc2)c2ccccc2)s1 [compound 64, (E)-N-{5-[(3,3-diphenylpropyl)amino]-1,3,4-thiadiazol-2-yl}-9-octadecenamide] | –
72.2 | CCCCCCCCCCCNc1nnc(NC(=O)c2ccc(C#N)cc2)s1 [compound 65, 4-cyano-N-[5-(undecylamino)-1,3,4-thiadiazol-2-yl]benzamide] | –
71.9 | CCOc1ccc2ccccc2c1C(=O)Nc1nnc(NCc2cccnc2)s1 [compound 66, 2-ethoxy-N-{5-[(3-pyridinylmethyl)amino]-1,3,4-thiadiazol-2-yl}-1-naphthamide] | –
71.7 | O=C(/C=C/c1ccccc1Cl)Nc1nnc(NCc2ccc(F)cc2)s1 [compound 67, (E)-3-(2-chlorophenyl)-N-{5-[(4-fluorobenzyl)amino]-1,3,4-thiadiazol-2-yl}-2-propenamide] | –
71.1 | NS(=O)(=O)c1ccc(CCNc2nnc(NC(=O)c3ccc(I)cc3)s2)cc1 [compound 68, N-(5-{[4-(aminosulfonyl)phenthyl]amino}-1,3,4-thiadiazol-2-yl)-4-iodobenzamide] | –
70.6 | CCOc1ccc2ccccc2c1C(=O)Nc1nnc(NCCNc2ccccc2)s1 [compound 69, N-{5-[(2-anilinoethyl)amino]-1,3,4-thiadiazol-2-yl}-2-ethoxy-1-naphthamide] | –
70.4 | CCOc1ccc2ccccc2c1C(=O)Nc1nnc(NCc2ccccn2)s1 [compound 70, 2-ethoxy-N-{5-[(2-pyridinylmethyl)amino]-1,3,4-thiadiazol-2-yl}-1-naphthamide] | –
69.8 | CCOc1ccc2ccccc2c1C(=O)Nc1nnc(NCc2ccc(F)cc2)s1 [compound 71, 2-ethoxy-N-{5-[(4-fluorobenzyl)amino]-1,3,4-thiadiazol-2-yl}-1-naphthamide] | –
69.3 | CCCCCCCC/C=C/CCCCCCCC(=O)Nc1nnc(NCc2cccnc2)s1 [compound 72, (E)-N-{5-[(3-pyridinylmethyl)amino]-1,3,4-thiadiazol-2-yl}-9-octadecenamide] | –
69.1 | O=C(Nc1nnc(NCc2ccc(Cl)c(Cl)c2)s1)c1c(Cl)cccc1Cl [compound 73, 2,6-dichloro-N-{5-[(3,4-dichlorobenzyl)amino]-1,3,4-thiadiazol-2-yl}benzamide] | –
69 | N#Cc1ccc(C(=O)Nc2nnc(NCc3ccc(F)cc3)s2)cc1 [compound 74, 4-cyano-N-{5-[(4-fluorobenzyl)amino]-1,3,4-thiadiazol-2-yl}benzamide] | –
68.8 | O=C(/C=C/c1ccccc1Cl)Nc1nnc(NCCCNC2CCCCC2)s1 [compound 75, (E)-3-(2-chlorophenyl)-N-(5-{[3-(cyclohexylamino)propyl]amino}-1,3,4-thiadiazol-2-yl)-2-propenamide] | –
68.5 | O=C(Nc1nnc(NC2CCCc3ccccc32)s1)c1c(Cl)cccc1Cl (centres unmarked) [compound 76, 2,6-dichloro-N-[5-(1,2,3,4-tetrahydro-1-naphthalenylamino)-1,3,4-thiadiazol-2-yl]benzamide] | –
